Patent publication US12404244B2, “Pan-KIT kinase inhibitor having quinoline structure and application thereof” (Tarapeutics Science Inc., priority 2018, dated 2025)
Like-named read-outs stand apart in the source and are kept apart here.

Legend:
Type in all cases: cell-based, mouse
[1] = system: BaF3; test: Proliferation of parental BaF3 cells (CCK-8); details: for GI50: Mus musculus, read-out: GI50 BaF3
Excerpt: (§1) Compounds as provided herein were further evaluated for their inhibitory effects on proliferation of cancer cells by testing their effects on growth of cancer cells. In this example the following cells were used: primary mouse B cells BaF3 (purchased from ATCC), GIST-T1 cells of the human gastrointestinal stromal tumor cell line (expressing wild-type KIT gene) (purchased from Cosmo Bio Co., Ltd. (Japan)). The present lab further constructed and used the following: mouse Tel-Kit-BaF3 (stably expressing KIT wild-type kinase), mouse Tel-Kit/T670I-BaF3 (stably expressing KIT T670I mutant kinase), mouse Tel-Kit/V559A-BaF3 (stably expressing KIT V559A mutant kinase), mouse Tel-Kit/V559D-BaF3 (stably expressing KIT V559D mutant kinase), mouse Tel-Kit/V559G-BaF3 (stably expressing KIT V559G mutant kinase), mouse Tel-Kit/V560D-BaF3 (stably expressing KIT V560D mutant kinase), mouse Tel-Kit/L576P-BaF3 (stably expressing KIT L576P mutant kinase), mouse Tel-Kit/V654A-BaF3 (stably expressing KIT V654A mutant kinase), mouse Tel-Kit/V654A/V559D-BaF3 (stably expressing KIT V654A V559D mutant kinase), mouse Tel-Kit/T670E-BaF3 (stably expressing KIT T670E mutant kinase), mouse Tel-Kit/T670I/V559D-BaF3 (stably expressing KIT T670I V559D mutant kinase), mouse Tel-Kit/S709F-BaF3 (stably expressing KIT S709F mutant kinase), mouse Tel-Kit/D816E-BaF3 (stably expressing KIT D816E mutant kinase), mouse Tel-Kit/D816H-BaF3 (stably expressing KIT D816H mutant kinase), mouse Tel-Kit/D820E-BaF3 (stably expressing KIT D820E mutant kinase), mouse Tel-Kit/D820G-BaF3 (stably expressing KIT D820G mutant kinase), mouse Tel-Kit/D820Y-BaF3 (stably expressing KIT D820Y mutant kinase), mouse Tel-Kit/N822K-BaF3 (stably expressing KIT N822K mutant kinase), mouse Tel-Kit/Y823D-BaF3 (stably expressing KIT Y823D mutant kinase), mouse Tel-Kit/A829P-BaF3 (stably expressing KIT A829P mutant kinase), GIST-T1-T670I cells of the human gastrointestinal stromal tumor cell line (expressing KIT-T670I mutant gene). The above cell lines were constructed by: amplifying respectively the sequences of human KIT and various mutant kinase regions of KIT via PCR, inserting the fragments respectively into MSCV-Puro vectors having a N-terminal TEL fragment and/or a NPM fragment and/or a TPR fragment (purchased from Clontech), transfecting mouse BaF3 cells with the vectors by means of retrovirus to obtain stably transfected cells, removing the growth factor IL-3, and thereby eventually obtaining cell lines that depend on the transferred protein KIT or various mutants of KIT. The GIST-T1-T670I (expressing C-KIT-T670I mutant gene) cell line was constructed by our laboratory as follows: designing sgRNA that targeted a region around T670 of the KIT gene with CRISPR Design Tool (website: crispr.mit.edu, Zhang Feng Lab), cloning it into pSpCas9(BB)-2A-Puro vector; co-transfecting cells with the resultant vector and a single-stranded oligonucleotide having T670I site mutation that is near to T670, subjecting the resultant to antibiotics screening, followed by dilution, and monocellular culture in a 96-well plate; validating the site T670 of the cells by sequence detection via Sanger sequencing.
(§2) The cells after incubation were detected using CCK-8 (purchased from MedChem Express, Shanghai, China) cell viability assay kit (CCK-8 may be reduced by dehydrogenase in living cells to a highly water-soluble yellow formazan product, and the amount of the resultant formazan is proportional to the number of living cells), the number of living cells were quantified with a microplate reader, and GI50 of the compounds and the control compounds were calculated (the results shown in Table 2 and Table 3).

[2] = system: TEL-KIT/T670I-BaF3; test: Proliferation of TEL-KIT/T670I-BaF3 cells (CCK-8); details: for GI50: Mus musculus, read-out: GI50 TEL-KIT/T670I-BaF3
Excerpt: as §1

[3] = system: TEL-KIT-BaF3 (stably expressing KIT wild-type kinase); test: Proliferation of TEL-KIT-BaF3 cells (CCK-8); details: for GI50: Mus musculus, read-out: GI50 TEL-KIT-BaF3
Excerpt: as §1, §2

[4] = BaF3 parent cells, 72 hours, CCK-8

GI50 ([2]; 72 hours, CCK-8) [nM] | GI50 ([3]; KIT wild-type, 72 hours, CCK-8) [nM] | SMILES | GI50 ([1]; BaF3, 72 h) [nM] | GI50 ([2]; 72 h) [nM] | GI50 ([3]; 72 h) [nM] | inhibitory effect against mutant KIT-T670I [2] | inhibitory effect against wild-type KIT [3] | GI50 [1, 4] [nM] | selectivity against BaF3 ([1]; KIT and KIT-T670I relative to parent BaF3 cells)
– | – | COc1cc2nccc(Oc3ccc(NC(=O)Cc4cccc(C(F)(F)F)c4)cc3)c2cc1OC [Example 8, N-(4-((6,7-dimethoxyquinolin-4-yl)oxy)phenyl)-2-(3-(trifluoromethyl)phenyl)acetamide] | 1890 | 1 | 20 | – | – | – | –
– | – | COc1cc2nccc(Oc3ccc(NC(=O)Cc4ccccc4)cn3)c2cc1OC [Comparative Example 1, N-(6-((6,7-dimethoxyquinolin-4-yl)oxy)pyridin-3-yl)-2-phenylacetamide, reference compound] | > 10000 | > 10000 | > 10000 | no significant inhibitory effects | no significant inhibitory effects | – | –
15 | 68 | COc1cc2nccc(Oc3ccc(NC(=O)NCCCc4ccc(F)cc4)cc3)c2cc1OC [Example 32, 1-(4-((6,7-dimethoxyquinolin-4-yl)oxy)phenyl)-3-(3-(4-fluorophenyl)propyl)urea] | – | – | – | – | – | 3850 | –
16 | 97 | COc1cc2nccc(Oc3ccc(NC(=O)NCCCc4cccc(F)c4)cc3)c2cc1OC [Example 31, 1-(4-((6,7-dimethoxyquinolin-4-yl)oxy)phenyl)-3-(3-(3-fluorophenyl)propyl)urea] | – | – | – | – | – | 2480 | –
– | – | COc1cc2nccc(Oc3ccc(NC(=O)Cc4ccc(Cl)c(C(F)(F)F)c4)cc3Cl)c2cc1OC [Example 38, N-(3-chloro-4-((6,7-dimethoxyquinolin-4-yl)oxy)phenyl)-2-(4-chloro-3-(trifluoromethyl)phenyl)acetamide] | 9450 | 56 | 78 | – | – | – | –
– | – | COc1cc2nccc(Oc3ccc(NC(=O)Cc4ccc(C(F)(F)F)cc4)cc3)c2cc1OC [Example 9, N-(4-((6,7-dimethoxyquinolin-4-yl)oxy)phenyl)-2-(4-(trifluoromethyl)phenyl)acetamide] | 2160 | 11 | 22 | – | – | – | –
10 | 110 | COc1cc2nccc(Oc3ccc(NC(=O)NCCCc4ccccc4)cc3)c2cc1OC [Example 30, 1-(4-((6,7-dimethoxyquinolin-4-yl)oxy)phenyl)-3-(3-phenylpropyl)urea] | – | – | – | – | – | 2910 | –
844 | 183 | COc1cccc(CC(=O)Nc2ccc(Oc3ncnc4cc(OC)c(OC)cc34)cc2)c1 [Comparative Example 4, N-(4-((6,7-dimethoxyquinazolin-4-yl)oxy)phenyl)-2-(3-methoxyphenyl)acetamide, reference compound] | – | – | – | certain inhibitory activity but lower than that of the present invention compounds | certain inhibitory activity but lower than that of the present invention compounds | 3120 | weaker selectivity against BaF3
– | – | COc1cc2nccc(Oc3ccc(NC(=O)Cc4ccc(C)c(C)c4)cc3)c2cc1OC [Example 11, N-(4-((6,7-dimethoxyquinolin-4-yl)oxy)phenyl)-2-(3,4-dimethylphenyl)acetamide] | 6420 | 15 | 27 | – | – | – | –
– | – | COc1cc2nccc(Oc3ccc(NC(=O)Cc4ccc(Cl)c(C(F)(F)F)c4)c(F)c3)c2cc1OC [Example 24, N-(2-fluoro-4-((6,7-dimethoxyquinolin-4-yl)oxy)phenyl)-2-(4-chloro-3-(trifluoromethyl)phenyl)acetamide] | 3210 | 18 | 49 | – | – | – | –
4610 | 2350 | COc1cc2nccc(Oc3ccc(C(=O)NCc4cccc(C(F)(F)F)c4)cc3)c2cc1OC [Comparative Example 3, N-(3-(trifluoromethyl)benzyl)-4-((6,7-dimethoxyquinolin-4-yl)oxy)benzamide, reference compound] | – | – | – | substantially vanished | substantially vanished | ≥ 10000 | –
– | – | COc1cc2nccc(Oc3ccc(NC(=O)Cc4ccc(F)c(C(F)(F)F)c4)cc3)c2cc1OC [Example 13, N-(4-((6,7-dimethoxyquinolin-4-yl)oxy)phenyl)-2-(4-fluoro-3-(trifluoromethyl)phenyl)acetamide] | 1030 | 13 | 24 | – | – | – | –
